For 2 compounds, IC50 results are on record in publication PMC7552967, “Anti-Melanoma Activities of Artemisone and Prenylated Amino-Artemisinins in Combination With Known Anticancer Drugs” (Frontiers in Pharmacology, 2020).

The IC50 is the concentration at which inhibition is half-maximal.

Format in all cases: cell-based
For assay [1], the system named is UACC62 melanoma cells. In words: Sulforhodamine B (SRB) growth inhibition assay, UACC62. As to conditions: Homo sapiens, UACC-62, mean ± SD. The text has this: (§1) The human cell lines TK10 (human kidney adenocarcinoma), UACC62 (human melanoma) and MCF7 (human breast adenocarcinoma) were obtained from the National Cancer Institute (NCI) as part of a panel widely studied for drug screening and molecular target identification. Melanoma (A375) and human embryonic kidney (HEK293) were acquired from the American Type Culture Collection; ATCC® CRL-1619™ and ATCC® CRL-1573™ respectively. The nontumorigenic human immortalized keratinocyte (HaCaT) cells were a kind donation by the School of Anatomical Sciences, Faculty of Health Sciences, University of the Witwatersrand, South Africa. […]
(§2) The growth inhibitory effects of the compounds were tested in the 3-cell line panel consisting of TK10 (renal), UACC62 (melanoma) and MCF7 (breast) cancer cells by Sulforhodamine B (SRB) assay. In addition, activity was also evaluated against HEK293 cells with the 3-(4,5-dimethylthiazol-2-yl)-2,5-diphenyl tetrazolium bromide (MTT) assay ([Mosmann, 1983]). […] The results were expressed as half maximal inhibitory concentrations (IC50) as described before ([Lewies et al., 2018]). […] After incubation, cell viability was determined using a microplate reader (BioTek®, Vermont, USA) at an excitation wavelength of 560 nm and emission wavelength of 630 nm with DMSO measured as a blank. […] Using the MTT assay data, IC50 values were calculated using GraphPad Prism 8. […]

Assay [2] deals with MCF-7 breast cancer cells. In words: Sulforhodamine B (SRB) growth inhibition assay, MCF7. As to conditions: Homo sapiens, mean ± SD.
Text: as §1, §2

In assay [3] the test system is TK10 renal cancer cells. In words: Sulforhodamine B (SRB) growth inhibition assay, TK10. The conditions noted are these: Homo sapiens, TK-10, mean ± SD.
Text: as §1, §2

Consider `CC(C)=CCC/C(C)=C/CC/C(C)=C/CN1CCN([C@@H]2O[C@@H]3O[C@@]4(C)CC[C@H]5[C@H](C)CC[C@@H]([C@H]2C)[C@@]35OO4)CC1` [Farnesylpiperazine-DHA 7, farnesylpiperazine-DHA], for which the IC50 in assay [1] stood at 2150 ± 790 nM; in assay [2] it was 1560 ± 510 nM; in assay [3] it was 3000 ± 670 nM.
On the same counts, the results for `C[C@H]1[C@H](N2CCS(=O)(=O)CC2)O[C@@H]2O[C@@]3(C)CC[C@H]4[C@H](C)CC[C@@H]1[C@@]24OO3` [Artemisone 4, artemisone] are 32700 ± 3470 nM, 2750 ± 790 nM and over 100000 nM.
